Source: patent US5948749A, “Pharmaceutical preparations for intranasal administration” (Fuji Yakuhin Company, Limited, priority 1996, dated 1999)

Test system: ophthalmic mucous membrane
Settings: rabbit, in vivo
Description: The testing method of the present test was based on the guidelines given by OECD. That means, 3 rabbits were used in this study, and a test drug was administered once into one eye of a rabbit in the conjunctival sac, and the other eye was used as control. […] Eyes were washed using lukewarm water of about 35° C. at the observation 24 hours after the administration. Scores of the conjunctival reaction obtained by administration of each test drug were calculated according to the assessment criteria of Draize method. The maximum of total score at each observation time was obtained for each test drug and for each test animal, and the average was calculated, then irritation evaluation in 8 stages (FIG. 9) was carried out according to the Kay and Calandra ophthalmic mucous membrane irritation classification method.

With sodium polystyrene sulphonate the “Kay and Calandra ophthalmic mucous membrane irritation classification (8 levels)” value was “Moderately irritating” and the “average value (score) of the maximum Draize score” value was 29.0.
